Patent publication EP4631938A1, “NITROGEN-CONTAINING HETEROCYCLE WITH SEROTONIN RECEPTOR-BINDING ACTIVITY AND CARBOCYCLIC DERIVATIVE” (Shionogi & Co., Ltd, priority 2022, dated 2024)

Columns and labels:
[1] = molecular target: T1, human recombinant 5-HT2C receptor (Homo sapiens, UniProt P28335); assay: Test Example 2: 5-HT2C receptor binding inhibition test ([3H]-Mesulergine; non-specific ligand Serotonin HCl); conditions: human serotonin 5-HT2C receptor binding activity
T1 construct: expressed in transfected cells; host or cells: Jump-In HEK cells (membrane preparation)
T1 sequence (P28335 33-458): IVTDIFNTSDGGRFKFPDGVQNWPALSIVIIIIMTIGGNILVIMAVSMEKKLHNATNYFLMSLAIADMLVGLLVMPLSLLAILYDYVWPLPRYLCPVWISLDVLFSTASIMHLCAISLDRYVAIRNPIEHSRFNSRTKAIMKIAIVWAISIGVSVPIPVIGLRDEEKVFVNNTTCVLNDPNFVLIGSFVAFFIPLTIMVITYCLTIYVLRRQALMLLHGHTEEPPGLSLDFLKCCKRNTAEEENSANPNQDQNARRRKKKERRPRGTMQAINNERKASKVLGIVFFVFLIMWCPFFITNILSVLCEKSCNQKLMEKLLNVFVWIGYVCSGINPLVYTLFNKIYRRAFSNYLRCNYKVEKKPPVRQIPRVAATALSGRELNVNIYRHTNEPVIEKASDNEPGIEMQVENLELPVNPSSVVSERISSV
Procedure: The Kd value is calculated when the lot of the cell membrane is changed. 1 mmol/L non-specific binding calculating compound dissolved in DMSO or DMSO is previously dispensed to the microplate by 0.5 µL, and the cell membrane is diluted with an Assay buffer. The radioactive ligand solution is diluted step by step, and counts are checked with a liquid scintillator. The Assay buffer containing diluted cell membranes is dispensed by 50 µL/well into the microplate. The radioactive ligand solution is then dispensed by 50 µL/well into the microplate and the plate is sealed. The microplate is allowed to stand at 37°C for 2 hours. During this time, 50 mmol/L Tris-HCl (pH 7.4) is dispensed by 50 µL/well into the GF/B UniFilter plate and allowed to stand at 4°C for 1 hour or longer. Thereafter, filtration is performed with a Cell Harvester (PerkinElmer). The radioactive ligand solution is dispensed by 10 µL/well into empty wells of the GF/B UniFilter plate. After drying the GF/B UniFilter plate at room temperature, MicroScinti20 is dispensed by 50 µL/well into the GF/B UniFilter plate, and the plate is sealed. GF/B UniFilter plate is allowed to stand at room temperature overnight. The radioactivity of [^3H]-Mesulergine bound to the 5-HT2C receptor is measured using Microbeta2 (PerkinElmer) at a measurement time of 1 min/well. The Saturation curve is drawn from the measured value, and the Kd value is calculated from the slope of the Scatchard Plot.
A compound solution dissolved in DMSO is dispensed to a microplate by 0.5 µL, and a cell membrane and a hot ligand are each diluted with an Assay buffer. The Assay buffer containing diluted cell membrane is then dispensed by 50 µL/well into the microplate. The radioactive ligand solution is then dispensed by 50 µL/well into the microplate and the plate is sealed. The microplate is then allowed to stand at 37°C for 2 hours. During this time, 50 mmol/L Tris-HCl (pH 7.4) is dispensed by 50 µL/well into the GF/B UniFilter plate and allowed to stand at 4°C for 1 hour or longer. Thereafter, filtration is performed with a Cell Harvester (PerkinElmer). After drying the GF/B UniFilter plate at room temperature, MicroScinti20 is dispensed by 50 µL/well into the GF/B UniFilter plate, and the plate is sealed. GF/B UniFilter plate is allowed to stand at room temperature overnight. The radioactivity of [^3H]-Mesulergine bound to the 5-HT2C receptor is measured using Microbeta2 (PerkinElmer) at a measurement time of 1 min/well. Non-specific binding is calculated from the radioactivity of [^3H]-Mesulergine in the presence of 500 µmol/L Serotonin HCl of unlabeled ligand, and total binding is calculated from the radioactivity of [^3H]-Mesulergine in the absence of the compound of the present invention (Vehicle). Finally, the Ki value is calculated from the dose-response curve.
(§1) (The binding activity of the compound according to the present invention is calculated from the following binding inhibition rate (%).) Inhibition rate (%) = [1−(c−a)/(b−a)] × 100 [formula] • a; average cpm of non-specific binding • b; average cpm of total binding • c; cpm in the presence of the test compound
(§2) The compounds of the present invention were tested essentially as described above.

[2] = molecular target: T2, human recombinant 5-HT2A receptor (Homo sapiens, UniProt P28223); assay: Test Example 1-2: 5-HT2A receptor binding inhibition test ([3H]-Ketanserin; non-specific ligand Ketanserin); conditions: [3H]-Ketanserin; non-specific binding with 500 µmol/L Ketanserin; room temperature (25°C), 1.5 hours; read-out: h 5-HT2A Ki
T2 construct: expressed in transfected cells; host or cells: Jump-In HEK cells (membrane preparation)
Procedure: The Kd value is calculated when the lot of the cell membrane is changed. 1 mmol/L non-specific binding calculating compound dissolved in DMSO or DMSO is previously dispensed to the microplate by 0.5 µL, and the cell membrane is diluted with an Assay buffer. The radioactive ligand solution is diluted step by step, and counts are checked with a liquid scintillator. The Assay buffer containing diluted cell membranes is dispensed by 50 µL/well into the microplate. The radioactive ligand solution is then dispensed by 50 µL/well into the microplate and the plate is sealed. The microplate is allowed to stand for 1.5 hours at room temperature (25°C). During this time, 50 mmol/L Tris-HCl (pH 7.4) is dispensed by 50 µL/well into the UniFilter plate and allowed to stand at 4°C for 1 hour or longer. Thereafter, filtration is performed with a Cell Harvester (PerkinElmer). The radioactive ligand solution is dispensed by 10 µL/well into empty wells of the UniFilter plate. After drying the UniFilter plate at room temperature, MicroScinti20 is dispensed by 50 µL/well into the UniFilter plate, and the plate is sealed. UniFilter plate is allowed to stand at room temperature overnight. The radioactivity of [^3H]-Ketanserin bound to the 5-HT2A receptor is measured using Microbeta2 (PerkinElmer) at a measurement time of 1 min/well. The Saturation curve is drawn from the measured value, and the Kd value is calculated from the slope of the Scatchard Plot.
A compound solution dissolved in DMSO is dispensed to a microplate by 0.5 µL, and a cell membrane and a hot ligand are each diluted with an Assay buffer. The Assay buffer containing diluted cell membrane is then dispensed by 50 µL/well into the microplate. The radioactive ligand solution is then dispensed by 50 µL/well into the microplate and the plate is sealed. Thereafter, the microplate is allowed to stand at room temperature (25°C) for 1.5 hours. During this time, 50 mmol/L Tris-HCl (pH 7.4) is dispensed by 50 µL/well into the UniFilter plate and allowed to stand at 4°C for 1 hour or longer. Thereafter, filtration is performed with a Cell Harvester (PerkinElmer). After drying the UniFilter plate at room temperature, MicroScinti20 is dispensed by 50 µL/well into the UniFilter plate, and the plate is sealed. UniFilter plate is allowed to stand at room temperature overnight. The radioactivity of [^3H]-Ketanserin bound to the 5-HT2A receptor is measured using Microbeta2 (PerkinElmer) at a measurement time of 1 min/well. Non-specific binding is calculated from the radioactivity of [^3H]-Ketanserin in the presence of 500 µmol/L Ketanserin of unlabeled ligand, and total binding is calculated from the radioactivity of [^3H]-Ketanserin in the absence of the compound of the present invention (Vehicle). Finally, the Ki value is calculated from the dose-response curve.
as §1, §2

T2 sequence (P28223 whole entry): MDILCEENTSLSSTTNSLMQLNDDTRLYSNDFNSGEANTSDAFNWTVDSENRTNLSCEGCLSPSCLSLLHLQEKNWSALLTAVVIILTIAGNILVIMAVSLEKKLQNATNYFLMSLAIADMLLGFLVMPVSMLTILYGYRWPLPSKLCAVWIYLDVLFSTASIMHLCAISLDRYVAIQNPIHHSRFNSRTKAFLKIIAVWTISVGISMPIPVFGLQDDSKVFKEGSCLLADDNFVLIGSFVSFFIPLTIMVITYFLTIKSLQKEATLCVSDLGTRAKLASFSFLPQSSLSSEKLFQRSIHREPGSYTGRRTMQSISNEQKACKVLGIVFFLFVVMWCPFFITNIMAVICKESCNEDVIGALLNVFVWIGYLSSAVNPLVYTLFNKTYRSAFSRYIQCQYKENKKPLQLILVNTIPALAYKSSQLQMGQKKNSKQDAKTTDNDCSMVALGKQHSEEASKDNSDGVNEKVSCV

Row | SMILES | Ki [1] [nM] | Ki [2] [nM]
1 | Cc1nc(COC(C)C)nc(C)c1-c1cc(Nc2ncc(C(F)(F)F)cc2Cl)ncc1OCCO [Compound I-204] | 2.7 | 2.35
2 | Cc1nc(C2CCO2)nc(C)c1-c1cc(Nc2ncc(C(F)(F)F)cc2Cl)ncc1OCCO (racemic) [Compound I-216] | 5.53 | 1.81
3 | Cn1ncc(Br)c1-c1nc(Nc2ccc(C(F)(F)F)cc2)ncc1OCCO [Compound I-336] | 0.748 | 0.226
4 | Cc1cc(C#N)ccc1Nc1ncc(OCCO)c(-c2c(Br)cnn2C)n1 [Compound I-355] | 8.2 | 0.398
5 | Cc1nc(CO[C@H]2CCOC2)nc(C)c1-c1cc(Nc2ncc(C(F)(F)F)cc2Cl)ncc1OCCO [Compound I-377] | 4.66 | 2.9
6 | O=C1NCCc2c1cccc2-c1cc(Nc2ncc(C(F)(F)F)cc2F)ncc1OCCO [Compound I-227] | 26.7 | 1.21
7 | Cc1nc(C)c(-c2cc(Nc3ncc(-c4ccc(C(F)(F)F)cc4)cn3)ncc2OCCO)c(C)n1 [Compound I-319] | 2.02 | 0.65
8 | Cc1cc(Cl)ccc1Nc1ncc(OCCO)c(-c2c(Br)cnn2C)n1 [Compound I-343] | 2.42 | 0.184
9 | COCc1nc(C)c(-c2cc(Nc3ncc(-c4ccc(F)c(F)c4)cc3Cl)ncc2OCCO)c(C)n1 [Compound I-254] | 0.278 | 0.496
10 | COCc1nc(C)c(-c2cc(Nc3ncc(OC(F)(F)F)cc3OC)ncc2OCCO)c(C)n1 [Compound I-196] | 5.17 | 4.46
11 | Cn1ncc(Br)c1-c1cc(Nc2cc(C(F)(F)F)ccn2)c(F)cc1OCCO [Compound I-407] | 3.64 | 0.225
12 | Cc1nc(COC(F)F)nc(C)c1-c1cc(Nc2ncc(C(F)(F)F)cc2Cl)ncc1OCCO [Compound I-203] | 1.82 | 1.97
13 | Cn1ncc(Cl)c1-c1cc(Nc2ccc(Cl)cn2)c(F)cc1OCCO [Compound I-163] | 1.26 | 0.216
14 | Cc1nc(C)c(-c2cc(Nc3ncc(Cl)cc3C)c(F)cc2OCCO)c(C)n1 [Compound I-173] | 5.11 | 1.42
15 | COCc1nc(C)c(-c2cc(Nc3ncc(-c4ccc(Cl)cc4F)cc3Cl)ncc2OCCO)c(C)n1 [Compound I-263] | 0.318 | 0.577
16 | Cn1ncc(Br)c1-c1cc(Nc2ccc(Cl)cn2)ncc1OCCO [Compound I-284] | 2.07 | 0.301
17 | COCc1nc(C)c(-c2cc(Nc3ncc(C(F)(F)F)cc3F)c(F)cc2OCCO)c(C)n1 [Compound I-184] | 2.98 | 3.84

Row | SMILES | Ki [1] [nM] | Ki [2] [nM]
18 | Cn1ncc(Br)c1-c1cc(Nc2ncc(OC(F)(F)F)cc2F)c(F)cc1OCCO [Compound I-168] | 0.162 | 0.248
19 | Cn1ncc(Br)c1-c1cc(Nc2ncc(C(F)(F)F)cn2)c(Cl)cc1OCCO [Compound I-397] | 1.8 | 0.413
20 | Cn1ncc(Br)c1-c1nc(Nc2ccc(C(F)(F)F)cn2)c(Cl)cc1OCCO [Compound I-387] | 3.82 | 0.318
21 | Cn1ncc(Br)c1-c1cc(Nc2ccc(Cl)cn2)c(Cl)cc1OCCO [Compound I-401] | 0.849 | 0.211
22 | Cc1nc(C2CCCO2)nc(C)c1-c1cc(Nc2ncc(C(F)(F)F)cc2F)ncc1OCCO (racemic) [Compound I-198] | 9.63 | 5.3
23 | Cn1ncc(Br)c1-c1cc(Nc2cnc(C(F)(F)F)cn2)c(F)cc1OCCO [Compound I-404] | 5.79 | 0.362
24 | COCc1nc(C)c(-c2cc(Nc3ncc(-c4ncc(F)cn4)cc3Cl)ncc2OCCO)c(C)n1 [Compound I-249] | 4.29 | 5.19
25 | COCc1nc(C)c(-c2cc(Nc3ncc(-c4ccc(Cl)c(F)c4)cc3Cl)ncc2OCCO)c(C)n1 [Compound I-234] | 0.167 | 0.525
26 | Cc1nc(C)c(-c2nc(Nc3ccc(-c4ccc(C(F)(F)F)nc4)cn3)c(F)cc2OCCO)c(C)n1 [Compound I-363] | 2.76 | 2.32
27 | Cc1nc(C2CCC2)nc(C)c1-c1cc(Nc2ncc(C(F)(F)F)cc2Cl)ncc1OCCO [Compound I-208] | 1.67 | 1.02
28 | COCc1nc(C)c(-c2cc(Nc3ncc(-c4ccc(F)cc4F)cc3Cl)ncc2OCCO)c(C)n1 [Compound I-256] | 0.322 | 0.5
29 | Cc1nc(C)c(-c2cc(Nc3ncc(OC(F)(F)F)cc3C)ncc2OCCO)c(C)n1 [Compound I-181] | 3.62 | 0.984
30 | Cn1ncc(Cl)c1-c1cc(Nc2ncc(C(F)(F)F)cn2)c(F)cc1OCCO [Compound I-161] | 1.13 | 0.361
31 | Cn1ncc(Br)c1-c1cc(Nc2ccc(OCC(F)(F)F)cn2)ncc1OCCO [Compound I-307] | 0.715 | 0.221
32 | COCc1nc(C)c(-c2cc(Nc3ncc(-c4ccc(C(F)F)cc4)cc3Cl)ncc2OCCO)c(C)n1 [Compound I-242] | 0.337 | 0.258
33 | COCc1nc(C)c(-c2cc(Nc3ncc(-c4cccc(C#N)c4)cc3Cl)ncc2OCCO)c(C)n1 [Compound I-260] | 2.06 | 2.05
34 | Cn1ncc(Br)c1-c1cc(Nc2ccc(OC(F)F)cn2)ncc1OCCO [Compound I-288] | 0.78 | 0.387
